Test results reported in ChEMBL document CHEMBL3097987, “Pyrrolizines: Promising scaffolds for anticancer drugs” (Bioorg Med Chem, 2014).
One block for each molecule: values may come before it.

Key:
Tubulin = assay: Inhibition of tubulin (unknown origin) polymerization; format: protein-complex assay, Homo sapiens
[1] = biological target: Peptidyl-prolyl cis-trans isomerase NIMA-interacting 1 (Homo sapiens, UniProt Q13526); assay: Inhibition of Pin-1 (unknown origin) using Suc-Ala-Glu-Pro-Phe-pNA as substrate preincubated for 300 seconds followed by substrate addition by UV/Vis spectrophotometric analysis
Peptidyl-prolyl cis-trans isomerase NIMA-interacting 1, sequence (Q13526 whole entry): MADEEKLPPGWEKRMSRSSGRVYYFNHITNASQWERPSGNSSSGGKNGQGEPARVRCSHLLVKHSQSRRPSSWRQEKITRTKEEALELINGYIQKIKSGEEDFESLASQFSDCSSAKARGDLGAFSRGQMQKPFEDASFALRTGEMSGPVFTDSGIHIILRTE

MCF7 [2] = assay: Cytotoxicity against human MCF7 cells relative to licofelone; format: functional
MDA-MB-231 [3] = assay: Cytotoxicity against human MDA-MB-231 cells relative to 5-flurouracil; format: functional
MDA-MB-231 [4] = assay: Cytotoxicity against human MDA-MB-231 cells relative to licofelone; format: functional
HT-29 = assay: Cytotoxicity against human HT-29 cells relative to licofelone; format: functional
MCF7 [5] = assay: Cytotoxicity against human MCF7 cells relative to 5-flurouracil; format: functional
Aromatase = biological target: T1, Aromatase (Homo sapiens, UniProt P11511); assay: Inhibition of aromatase (unknown origin)
T1 sequence (P11511 whole entry): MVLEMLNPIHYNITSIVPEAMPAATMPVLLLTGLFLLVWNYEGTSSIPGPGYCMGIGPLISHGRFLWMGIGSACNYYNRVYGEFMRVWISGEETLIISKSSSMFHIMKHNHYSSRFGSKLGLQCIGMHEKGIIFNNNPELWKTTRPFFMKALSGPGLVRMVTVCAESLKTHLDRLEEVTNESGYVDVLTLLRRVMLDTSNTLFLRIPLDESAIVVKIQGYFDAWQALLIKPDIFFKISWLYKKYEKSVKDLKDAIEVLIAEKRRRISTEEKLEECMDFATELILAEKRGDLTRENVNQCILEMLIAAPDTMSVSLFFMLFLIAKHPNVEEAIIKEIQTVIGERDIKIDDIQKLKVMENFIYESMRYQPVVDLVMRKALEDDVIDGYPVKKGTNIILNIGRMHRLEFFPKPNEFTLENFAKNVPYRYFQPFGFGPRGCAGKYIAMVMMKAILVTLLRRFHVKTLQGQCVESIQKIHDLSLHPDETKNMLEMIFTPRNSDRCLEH

B16 = assay: Cytotoxicity against mouse B16 cells assessed as tumor growth inhibition relative to control; format: functional
[6] = Cytotoxicity against mouse mammary carcinoma 755 cells assessed as tumor growth inhibition relative to control; format: functional
[7] = Cytotoxicity against mouse LLC cells assessed as tumor growth inhibition relative to control; format: functional, Lewis lung carcinoma
Jensen sarcoma = assay: Growth inhibition of rat Jensen sarcoma relative to control; format: functional
[8] = Growth inhibition of mouse mammary carcinoma 755 cells relative to control; format: functional
HT-1080 = assay: Ratio of cisplatin IC50 to compound IC50 for human HT1080 cells; format: functional
[9] = Antitumor activity against human HT1080 cells by MTT assay; format: functional, cell-based; conditions: HT-1080
[10] = Antitumor activity against human Bel7402 cells by MTT assay; format: functional, cell-based; conditions: Bel-7402
Bel-7402 = assay: Ratio of cisplatin IC50 to compound IC50 for human Bel7402 cells; format: functional

- IC50 (Tubulin): 2.9 µM
SMILES: COc1ccc(-c2csc3c2-n2cccc2C3=O)cc1O

- Ki [1]: 9 µM
SMILES: CO[C@@H]1C[C@@H]2[C@@H](COP(=O)(O)O)[C@@H](C(=O)NCc3ccccc3)[C@@H](c3ccc4ccccc4c3)N2C1

SMILES: CC1(C)Cc2c(-c3ccccc3)c(-c3ccc(Cl)cc3)c(C(=O)Cn3cncn3)n2C1
- fold change (FC) (MCF7 [2]): 2
- fold change (FC) (MDA-MB-231 [3]): 2
- fold change (FC) (MDA-MB-231 [4]): 2
- fold change (FC) (HT-29): 2
- fold change (FC) (MCF7 [5]): 2

- IC50 (Aromatase): 3 µM
SMILES: O=C1/C(=C\c2cccnc2)C(c2ccccc2)n2cccc21 (configuration not stated)

- IC50 (Aromatase): 0.65 µM
SMILES: O=C1/C(=C\c2ccncc2)C(c2ccccc2)n2cccc21 (configuration not stated)

SMILES: CCOC(=O)c1c2n(c3c(SC)ncnc13)CCC2
- TGI (B16): 40%

SMILES: CCOC(=O)Sc1ncnc2c(C(=O)OCC)c3n(c12)CCC3
- TGI [6]: 34%
- TGI (B16): 40%

SMILES: CCOC(=O)c1c2n(c3c(SCc4ccccc4)ncnc13)CCC2
- TGI [7]: 43%
- TGI (B16): 40%

SMILES: NC(=O)c1c2n(c3c(-c4ccccc4)ncnc13)CCC2
- growth inhibition (GI) (Jensen sarcoma): 73%
- growth inhibition (GI) [8]: 73%

SMILES: CN(C)/C=N/C(=O)c1c2n(c3c(-c4ccccc4)ncnc13)CCC2
- growth inhibition (GI) (Jensen sarcoma): 78%
- growth inhibition (GI) [8]: 78%

SMILES: CSc1sc2c(c1-c1ccc([N+](=O)[O-])cc1)-n1cccc1/C2=N\OCOCCN1CCN(C)CC1
- Ratio IC50 (HT-1080): 3.3
- IC50 [9]: 8.2 µM
- IC50 [10]: 18.2 µM
- Ratio IC50 (Bel-7402): 2.5

- Ki [1]: 15 µM
SMILES: O=C(NCc1ccccc1)C1C(COP(=O)(O)O)C2CCCN2C1c1ccc2ccccc2c1 (racemic)

- Ki [1]: 44 µM
SMILES: O=C(NCc1ccccc1)C1C(COP(=O)(O)O)C2CCCN2C1c1ccccc1 (racemic)

- Ki [1]: 16 µM
SMILES: O=C(NCc1ccccc1)C1C(COP(=O)(O)O)C2CCCN2C1c1c(F)c(F)c(F)c(F)c1F (racemic)

- Ki [1]: 32 µM
SMILES: O=C(NCc1ccc2c(c1)OCO2)C1C(COP(=O)(O)O)C2CCCN2C1c1ccc2ccccc2c1 (racemic)

SMILES: COc1cc([C@@H]2c3cc4c(cc3C[C@H]3COC(=O)[C@@H]32)OCO4)cc(OC)c1OC [DESOXYPODOPHYLLOTOXIN]
- IC50 (Tubulin): 2.4 µM
